Literature values, collected in patent US20210077665A1, “METHODS AND DEVICES FOR LYMPHATIC TARGETING” (priority 2005, published 2021).

Tests used:
[1] = at 44 h; pleural injection

| IC50 (H460 lung cancer cells) [nM] | Molecule | uptake in mediastinal nodes [1] [%] |
| --- | --- | --- |
| 5 | CC(=O)O[C@H]1C(=O)[C@@]2(C)[C@H]([C@H](OC(=O)c3ccccc3)[C@]3(O)C[C@H](OC(=O)[C@H](O)[C@@H](NC(=O)c4ccccc4)c4ccccc4)C(C)=C1C3(C)C)[C@]1(OC(C)=O)CO[C@@H]1C[C@@H]2O [Paclitaxel, paclitaxel] |  |
|  | 111In-avidin: 111In labeled avidin injected in the pleural space (literature) | 3.3 |
